The target in assay [1] is T1, DGKα (Homo sapiens, UniProt P23743).
T1 construct: His; purchased Signal Chem D21-10BH
Put plainly: In vitro DGKα inhibition assay (ADP-Glo). The assay is classed as biochemical. The note with it: His-tagged human recombinant DGKα 0.1 nM, 50 μM ATP, 20 μM DLG, 90 minute incubation. The method, then: (§1) The DGKα and DGKζ biochemical reactions were performed using His-tagged human recombinant enzymes (Signal Chem, DGKα, #D21-10BH; DGKζ, #D30-10H)) and DLG (Dilauroyl-sn-glycerol) lipid substrate (Signal Chem, #D430-59). ADP-Glo assay was performed using ADP-Glo™ kinase Assay kit (Promega, #V9104). The reactions were carried out in assay buffer containing 40 mM Tris, pH 7.5, 0.1% CHAPS, 0.1% Prionex, 40 mM NaCl, 5 mM MgCl2, 1 mM CaCl2, and 1 mM DTT. DGKα reactions contained 0.1 nM DGKα, 50 μM ATP, and 20 μM DLG. And DGKζ reactions contained 0.4 nM DGKζ, 30 μM ATP, and 20 μM DLG.
(§2) Compounds were added with top concentration of 2 mM with 11 point, 3-fold dilution series. Enzyme solution (contains 2×DGK enzyme concentration in 1× assay buffer) was added to the plate in 2 μL/well volume, followed by 2 μL/well of substrate solution (contains 2× concentration of ATP and DLG substrate in 1× assay buffer). Plates were then centrifuged for 1 min at 1200 RPM and sealed or lidded. For 4 μL reaction volume, test compounds were therefore diluted 100× to final top concentration of 20 μM. After 90 minute incubation, reactions were quenched by addition of 2 μL/well Promega ADP-Glo Reagent, followed by centrifugation and lidding. After 60 min incubation, 2 μL/well Promega Kinase Detection Reagent was added, plates centrifuged, and incubated for 30 min. Plates were then read using Luminescence method on BMG PHERAstar FSX plate reader. Percent inhibition was calculated and IC50s were determined using 4-parameter fit in Genedata Screener. Labcyte Echo acoustic dispenser was used for compound addition, and Formulatrix Tempest liquid handler was used for all reagent dispenses.
For orientation: In ADP-Glo the light output rises with the ADP produced.

For assay [2], the target named is T2, DGKζ (Homo sapiens, UniProt Q13574).
T2 construct: His; purchased Signal Chem D30-10H
Put plainly: In vitro DGKζ inhibition assay (ADP-Glo). In kind it is biochemical. The note with it: His-tagged human recombinant DGKζ 0.4 nM, 30 μM ATP, 20 μM DLG, 90 minute incubation. The method, then: as §1, §2

The structures appear in SMILES notation. Some results are limits rather than exact numbers.

T1 sequence (P23743 whole entry): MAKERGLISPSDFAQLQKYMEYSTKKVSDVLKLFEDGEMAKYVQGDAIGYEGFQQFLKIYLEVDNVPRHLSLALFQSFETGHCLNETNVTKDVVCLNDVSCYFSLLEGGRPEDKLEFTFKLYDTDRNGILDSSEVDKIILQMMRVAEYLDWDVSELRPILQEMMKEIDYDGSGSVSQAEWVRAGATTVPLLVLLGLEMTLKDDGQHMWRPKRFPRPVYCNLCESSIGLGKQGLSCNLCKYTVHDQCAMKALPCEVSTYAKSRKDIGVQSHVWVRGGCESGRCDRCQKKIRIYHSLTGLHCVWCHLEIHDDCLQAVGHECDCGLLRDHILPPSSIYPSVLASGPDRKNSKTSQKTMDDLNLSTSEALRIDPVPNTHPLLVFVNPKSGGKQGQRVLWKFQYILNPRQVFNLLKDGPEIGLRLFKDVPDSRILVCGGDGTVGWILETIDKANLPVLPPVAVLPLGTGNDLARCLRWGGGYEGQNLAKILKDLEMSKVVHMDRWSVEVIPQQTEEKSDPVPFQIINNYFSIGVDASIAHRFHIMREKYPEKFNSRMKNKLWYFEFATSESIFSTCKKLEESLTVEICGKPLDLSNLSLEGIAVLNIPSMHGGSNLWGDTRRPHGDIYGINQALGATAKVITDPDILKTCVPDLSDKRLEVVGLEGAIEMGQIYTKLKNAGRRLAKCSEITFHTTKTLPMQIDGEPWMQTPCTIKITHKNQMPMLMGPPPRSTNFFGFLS
T2 sequence (Q13574 whole entry): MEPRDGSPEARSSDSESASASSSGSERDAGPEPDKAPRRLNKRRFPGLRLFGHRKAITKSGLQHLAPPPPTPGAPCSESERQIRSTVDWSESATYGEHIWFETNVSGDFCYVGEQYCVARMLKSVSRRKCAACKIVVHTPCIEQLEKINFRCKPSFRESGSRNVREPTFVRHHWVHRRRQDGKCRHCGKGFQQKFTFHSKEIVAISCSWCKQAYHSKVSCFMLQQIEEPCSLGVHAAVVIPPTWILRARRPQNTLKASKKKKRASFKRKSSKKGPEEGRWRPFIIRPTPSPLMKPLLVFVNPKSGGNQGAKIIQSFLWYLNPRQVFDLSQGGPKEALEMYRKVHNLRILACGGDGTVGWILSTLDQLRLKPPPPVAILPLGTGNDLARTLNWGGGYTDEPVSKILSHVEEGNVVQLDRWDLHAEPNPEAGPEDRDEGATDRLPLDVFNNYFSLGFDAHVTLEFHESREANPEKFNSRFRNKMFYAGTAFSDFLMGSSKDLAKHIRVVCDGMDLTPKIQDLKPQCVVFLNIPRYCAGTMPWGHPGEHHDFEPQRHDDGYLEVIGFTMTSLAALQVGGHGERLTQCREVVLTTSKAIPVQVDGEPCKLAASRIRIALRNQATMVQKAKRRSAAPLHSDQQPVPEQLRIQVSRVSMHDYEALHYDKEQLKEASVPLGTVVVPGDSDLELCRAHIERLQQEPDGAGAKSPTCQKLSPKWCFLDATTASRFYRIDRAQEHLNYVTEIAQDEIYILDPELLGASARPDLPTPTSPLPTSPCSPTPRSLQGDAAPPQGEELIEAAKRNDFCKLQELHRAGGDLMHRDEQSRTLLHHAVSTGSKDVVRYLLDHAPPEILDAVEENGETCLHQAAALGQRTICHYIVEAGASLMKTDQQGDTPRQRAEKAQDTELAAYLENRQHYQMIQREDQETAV

For orientation: IC50 means the midpoint of a concentration-inhibition curve. Turning to `C[C@@H]1CN(c2nc3nncn3c3c2ncn3C[C@@H]2CCCO2)[C@@H](C)CN1C(c1ccc(Cl)cc1)C1CC1` (stereo partly drawn) [Example 10, 4-((2S,5R)-4-((4-Chlorophenyl)(cyclopropyl)methyl)-2,5-dimethylpiperazin-1-yl)-1-(((S)-tetrahydrofuran-2-yl)methyl)-1H-[1,2,4]triazolo[3,4-b]purine], the IC50 in assay [1] and in assay [2] was < 20 nM throughout.

Turning to `C[C@@H]1CN(c2nc3nncn3c3c2ncn3C[C@@H]2CCCO2)[C@@H](C)CN1C(c1ccc(C(F)(F)F)cn1)c1ccc(C(F)(F)F)cn1` [Example 19, 4-((2S,5R)-4-(Bis(5-(trifluoromethyl)pyridin-2-yl)methyl)-2,5-dimethylpiperazin-1-yl)-1-(((S)-tetrahydrofuran-2-yl)methyl)-1H-[1,2,4]triazolo[3,4-b]purine], the IC50 in assay [1] and in assay [2] was < 20 nM each time.

On to `C[C@@H]1CN(c2nc3nncn3c3c2ncn3C[C@@H]2CCCO2)[C@@H](C)CN1C(c1ccc(Cl)cn1)c1ccc(Cl)cn1` [Example 20, 4-((2S,5R)-4-(Bis(5-chloropyridin-2-yl)methyl)-2,5-dimethylpiperazin-1-yl)-1-(((S)-tetrahydrofuran-2-yl)methyl)-1H-[1,2,4]triazolo[3,4-b]purine], for which the 50% inhibitory concentration (IC50) in assay [1] and in assay [2] was < 20 nM throughout.

`COc1ccc(C(C(C)C)N2C[C@H](C)N(c3nc4nncn4c4c3nc(C)n4C[C@@H]3CCCO3)C[C@H]2C)cc1F` (stereo partly drawn) [Example 24, 4-((2S,5R)-4-(1-(3-fluoro-4-methoxyphenyl)-2-methylpropyl)-2,5-dimethylpiperazin-1-yl)-2-methyl-1-(((S)-tetrahydrofuran-2-yl)methyl)-1H-[1,2,4]triazolo[3,4-b]purine]: the 50% inhibitory concentration (IC50) in assay [1] and in assay [2] was < 20 nM throughout.

Consider `Cc1nc2c(N3C[C@@H](C)N(C(c4ccc(C(F)F)cc4F)C(C)C)C[C@@H]3C)nc3nncn3c2n1C[C@@H]1CCCO1` (stereo partly drawn) [Example 25, 4-((2S,5R)-4-(1-(4-(Difluoromethyl)-2-fluorophenyl)-2-methylpropyl)-2,5-dimethylpiperazin-1-yl)-2-methyl-1-(((S)-tetrahydrofuran-2-yl)methyl)-1H-[1,2,4]triazolo[3,4-b]purine], for which the half-maximal inhibitory concentration (IC50) in assay [1] and in assay [2] was < 20 nM in each case.

On to `Cc1nc2c(N3C[C@@H](C)N([C@H](c4ccc(Br)cc4F)C(C)C)C[C@@H]3C)nc3nncn3c2n1C[C@@H]1CCCO1` [Example 26, 4-((2S,5R)-4-((S)-1-(4-Bromo-2-fluorophenyl)-2-methylpropyl)-2,5-dimethylpiperazin-1-yl)-2-methyl-1-(((S)-tetrahydrofuran-2-yl)methyl)-1H-[1,2,4]triazolo[3,4-b]purine], for which the IC50 in assay [1] and in assay [2] was < 20 nM throughout.

For `Cc1nc2c(N3C[C@@H](C)N([C@@H](c4ccc(Br)cc4F)C(C)C)C[C@@H]3C)nc3nncn3c2n1C[C@@H]1CCCO1` [Example 27, 4-((2S,5R)-4-((R)-1-(4-bromo-2-fluorophenyl)-2-methylpropyl)-2,5-dimethylpiperazin-1-yl)-2-methyl-1-(((S)-tetrahydrofuran-2-yl)methyl)-1H-[1,2,4]triazolo[3,4-b]purine], the IC50 in assay [1] and in assay [2] was < 20 nM throughout.

Turning to `Cc1nc2c(N3C[C@@H](C)N([C@H](c4ccc(Cl)cc4F)C(C)C)C[C@@H]3C)nc3nncn3c2n1C[C@@H]1CCCO1` [Example 28, 4-((2S,5R)-4-((S)-1-(4-Chloro-2-fluorophenyl)-2-methylpropyl)-2,5-dimethylpiperazin-1-yl)-2-methyl-1-(((S)-tetrahydrofuran-2-yl)methyl)-1H-[1,2,4]triazolo[3,4-b]purine], the concentration for half-maximal inhibition (IC50) in assay [1] and in assay [2] was < 20 nM in each case.

Take `Cc1nc2c(N3C[C@@H](C)N([C@@H](c4ccc(Cl)cc4F)C(C)C)C[C@@H]3C)nc3nncn3c2n1C[C@@H]1CCCO1` [Example 29, 4-((2S,5R)-4-((R)-1-(4-chloro-2-fluorophenyl)-2-methylpropyl)-2,5-dimethylpiperazin-1-yl)-2-methyl-1-(((S)-tetrahydrofuran-2-yl)methyl)-1H-[1,2,4]triazolo[3,4-b]purine]: the IC50 in assay [1] and in assay [2] was < 20 nM each time.

Regarding `C[C@@H]1CN(c2nc3nncn3c3c2ncn3C[C@@H]2CCCO2)[C@@H](C)CN1C(c1ccc(Cl)c(F)c1)C1CC(F)(F)C1` (stereo partly drawn) [Example 30, 4-((2S,5R)-4-((4-Chloro-3-fluorophenyl)(3,3-difluorocyclobutyl)methyl)-2,5-dimethylpiperazin-1-yl)-1-(((S)-tetrahydrofuran-2-yl)methyl)-1H-[1,2,4]triazolo[3,4-b]purine], the IC50 in assay [1] and in assay [2] was < 20 nM in each case.

Turning to `C[C@@H]1CN(c2nc3nncn3c3c2ncn3C[C@@H]2CCCO2)[C@@H](C)CN1C(c1ccc(Cl)cc1F)C1CC(F)(F)C1` (stereo partly drawn) [Example 31, 4-((2S,5R)-4-((4-Chloro-2-fluorophenyl)(3,3-difluorocyclobutyl)methyl)-2,5-dimethylpiperazin-1-yl)-1-(((S)-tetrahydrofuran-2-yl)methyl)-1H-[1,2,4]triazolo[3,4-b]purine], the IC50 in assay [1] and in assay [2] was < 20 nM in each case.

`C[C@@H]1CN(c2nc3nncn3c3c2ncn3C[C@@H]2CCCO2)[C@@H](C)CN1C(c1ccc(Cl)cc1)C1CC(F)(F)C1` (stereo partly drawn) [Example 32, 4-((2S,5R)-4-((4-Chlorophenyl)(3,3-difluorocyclobutyl)methyl)-2,5-dimethylpiperazin-1-yl)-1-(((S)-tetrahydrofuran-2-yl)methyl)-1H-[1,2,4]triazolo[3,4-b]purine]: the IC50 in assay [1] and in assay [2] was < 20 nM each time.

Regarding `C[C@@H]1CN(c2nc3nncn3c3c2ncn3C[C@@H]2CCCO2)[C@@H](C)CN1C(c1ccc(Br)cc1)C1CC(F)(F)C1` (stereo partly drawn) [Example 33, 4-((2S,5R)-4-((4-Bromophenyl)(3,3-difluorocyclobutyl)methyl)-2,5-dimethylpiperazin-1-yl)-1-(((S)-tetrahydrofuran-2-yl)methyl)-1H-[1,2,4]triazolo[3,4-b]purine], the IC50 in assay [1] and in assay [2] was < 20 nM throughout.

In the case of `CC[C@@H]1CN(c2nc3nncn3c3c2ncn3C[C@@H]2CCCO2)[C@@H](C)CN1C(c1ccc(Cl)cc1)C1CC(F)(F)C1` (stereo partly drawn) [Example 34, 4-((2S,5R)-4-((4-Chlorophenyl)(3,3-difluorocyclobutyl)methyl)-5-ethyl-2-methylpiperazin-1-yl)-1-(((S)-tetrahydrofuran-2-yl)methyl)-1H-[1,2,4]triazolo[3,4-b]purine], the 50% inhibitory concentration (IC50) in assay [1] and in assay [2] was < 20 nM each time.

As to `CC[C@@H]1CN(c2nc3nncn3c3c2ncn3C[C@@H]2CCCO2)[C@@H](C)CN1C(c1ccc(C(F)(F)F)cc1)C1CC(F)(F)C1` (stereo partly drawn) [Example 35, 4-((2S,5R)-4-((3,3-Difluorocyclobutyl)(4-(trifluoromethyl)phenyl)methyl)-5-ethyl-2-methylpiperazin-1-yl)-1-(((S)-tetrahydrofuran-2-yl)methyl)-1H-[1,2,4]triazolo[3,4-b]purine], the half-inhibitory concentration (IC50) in assay [1] and in assay [2] was < 20 nM throughout.

For the compound `CC[C@@H]1CN(c2nc3nncn3c3c2nc(C)n3C[C@@H]2CCCO2)[C@@H](C)CN1Cc1ccc(C(F)(F)F)cc1` [Example 36, 4-((2S,5R)-5-Ethyl-2-methyl-4-(4-(trifluoromethyl)benzyl)piperazin-1-yl)-2-methyl-1-(((S)-tetrahydrofuran-2-yl)methyl)-1H-[1,2,4]triazolo[3,4-b]purine], the concentration for half-maximal inhibition (IC50) in assay [1] and in assay [2] was < 20 nM in each case.

Take `Cc1nc2c(N3C[C@@H](C)N(Cc4ccc(C(F)(F)F)cc4F)C[C@@H]3C)nc3nncn3c2n1C[C@@H]1CCCO1` [Example 37, 4-((2S,5R)-4-(2-Fluoro-4-(trifluoromethyl)benzyl)-2,5-dimethylpiperazin-1-yl)-2-methyl-1-(((S)-tetrahydrofuran-2-yl)methyl)-1H-[1,2,4]triazolo[3,4-b]purine]: the concentration for half-maximal inhibition (IC50) in assay [1] and in assay [2] was < 20 nM throughout.

Regarding `C[C@@H]1CN(c2nc3nncn3c3c2ncn3C[C@@H]2CCCO2)[C@@H](C)CN1Cc1ccc(C(F)(F)F)cc1F` [Example 38, 4-((2S,5R)-4-(2-Fluoro-4-(trifluoromethyl)benzyl)-2,5-dimethylpiperazin-1-yl)-1-(((S)-tetrahydrofuran-2-yl)methyl)-1H-[1,2,4]triazolo[3,4-b]purine], the IC50 in assay [1] and in assay [2] was < 20 nM in each case.

As for `Cc1nc2c(N3C[C@@H](C)N(Cc4ccc(C(F)(F)F)cc4)C[C@@H]3C)nc3nncn3c2n1C[C@@H]1CCCO1` [Example 39, 4-((2S,5R)-2,5-Dimethyl-4-(4-(trifluoromethyl)benzyl)piperazin-1-yl)-2-methyl-1-(((S)-tetrahydrofuran-2-yl)methyl)-1H-[1,2,4]triazolo[3,4-b]purine], the half-maximal inhibitory concentration (IC50) in assay [1] and in assay [2] was < 20 nM throughout.

The values are drawn from patent US20250179083A1, “TRICYCLIC TRIAZOLO COMPOUNDS AS DGK INHIBITORS” (Incyte Corporation, priority 2023, published 2025).
